Measured values as given in patent US20080050764A1, “Method and Apparatus for Measuring Enviromental Allergen” (Japan Science and Technology Agency, priority 2003, published 2008).
Entries after “also recorded” stand apart in the source; their conditions may differ. * marks the point of attachment. AMC = Cc1cc(=O)oc2cc(N*)ccc12; Boc = CC(C)(C)OC(=O)*

How the values were obtained:
[1] = test system: Cedar Pollen (Cedar Pollen-Cj Japanese Cedar); test: Measurement of cedar pollen with protease substrates, fluorescence (Example 7); assay type: biochemical; details: substrate 10 mM in DMSO, 37° C. 15 minutes, excitation 355 nm
Protocol: • Cedar Pollen (Cedar Pollen-Cj Japanese Cedar) (produced by LSL) • Leu-MCA and Boc-Val-Leu-Lys-MCA as protease substrates (both of them were produced by PEPTIDE INSTITUTE INC)
Cedar pollen was suspended in phosphate buffer to a concentration of 1 mg/ml and the suspension was diluted with phosphate buffer as appropriate. Each of the dilutions in an amount of 45 μL was mixed with 5 μL of the substrate dissolved in DMSO to a concentration of 10 mM, and the resulting mixture was incubated at 37° C. for 15 minutes. Using a plate reader, excitation was carried out at a wavelength of 355 nm, and fluorescence intensity at 460 nm was measured.

[2] = test system: Mite Extract Df (Mite dermatophagoides farinae); test: Protease substrate cleavage by mite extract, fluorescence (Example 9); assay type: biochemical; details: substrate 10 mM in DMSO, room temperature overnight, excitation 355 nm
Protocol: • Mite Extract Df (Mite dermatophagoides farinae) (obtained by extracting mites with phosphate buffer and freeze-drying the soluble fragment) (produced by LSL) • Protease Substrates (Met-MCA, Boc-Gln-Ala-Arg-MCA, Boc-Val-Leu-Lys-MCA, Bz-Arg-MCA, Glt-Ala-Ala-Phe-MCA (Glt means glutaryl) (All of them were produced by PEPTIDE INSTITUTE INC)
In phosphate buffer or water, mites were suspended to a concentration of 1 mg/ml, and the suspension was diluted with phosphate buffer as appropriate. Each of the dilutions in an amount of 50 μL was mixed with 5 μL of the substrate dissolved in DMSO to a concentration of 10 mM, and the resulting mixture was incubated at room temperature overnight. Using a plate reader, excitation was carried out at a wavelength of 355 nm, and fluorescence intensity at 460 nm was measured.

Cedar Pollen Extract = test: Quantification of cedar pollen extract with protease substrates, fluorescence (Example 8); assay type: biochemical, Japanese Cedar; details: substrate 10 mM in DMSO, 37° C. 15 minutes, excitation 355 nm
Protocol: • Cedar Pollen Extract (Cedar Pollen Extrace-CJ) (produced by LSL) • Leu-MCA and Boc-Val-Leu-Lys-MCA as protease substrates (both of them were produced by PEPTIDE INSTITUTE INC)
The cedar pollen extract was the centrifugation supernatant obtained by stirring cedar pollen in 0.125 M NaHCO3 (pH8) for 16 hours, and lightly homogenizing the mixture, followed by centrifugation. The extract was suspended in 5 mM borate buffer (pH8.0) containing 0.9% NaCl to a concentration of 666 μg/ml, and the resulting mixture was diluted with phosphate buffer as appropriate. Each of the samples in an amount of 45 μL was mixed with 5 μL of the substrate dissolved in DMSO to a concentration of 10 mM, and the resulting mixture was incubated at 37° C. for 15 minutes. Using a plate reader, excitation was carried out at a wavelength of 355 nm, and fluorescence intensity at 460 nm was measured.

| Compound | reaction of substrate with cedar pollen (fluorescence intensity at 460 nm) [1] | cleavage of substrate by mite antigen (fluorescence intensity at 460 nm) [2] | reaction of substrate with cedar pollen extract (fluorescence intensity at 460 nm) (Cedar Pollen Extract) |
| --- | --- | --- | --- |
| Cl.NC(N)=NCCCC(NC(=O)c1ccccc1)C(=O)Nc1ccc([N+](=O)[O-])cc1 (racemic) [Bz-DL-Arg-pNA.HCl] | reacts | – | – |
| Cc1cc(=O)oc2cc(NC(=O)[C@H](CCCNC(=N)N)NC(=O)c3ccccc3)ccc12 [Bz-Arg-MCA] | – | not substantially cleaved | – |
| Cc1cc(=O)oc2cc(NC(=O)C(N)CC(C)C)ccc12 (stereo not drawn) [Leu-MCA] | reacts | – | – |
| CSCCC(N)C(=O)Nc1ccc2c(C)cc(=O)oc2c1 (stereo not drawn) [Met-MCA] | – | effectively measured | – |
| Boc-Gln-Ala-Arg-{AMC} | – | effectively measured | – |
| Boc-Val-Leu-Lys-{AMC} | fluorescence was not dependent on the amount of cedar pollen; also recorded: does not react | effectively measured; also recorded: reacts | fluorescence was not dependent on the amount of cedar pollen |
| Glt-Ala-Ala-Phe-MCA | – | not substantially cleaved | – |
